Results reported in patent publication US8410141B2, “Insecticidal arylpyrrolines” (Bayer Cropscience AG, priority 2009, dated 2013).

Experiments:
Assay type in all cases: in vivo
[1] = tested on: Tobacco Cutworm (Spodoptera litura) Larvae; test: Test against tobacco cutworm (Spodoptera litura) larvae, leaf immersion; conditions: 100 ppm; sweet potato leaves immersed; third-instar larvae; after 7 days
Method: (§1) Unless not mentioned otherwise, the test solutions were prepared as follows:
(§2) Containing as solvent: Dimethylformamide, 3 parts by weight; and as emulsifier: Polyoxyethylene alkyl phenyl ether, 1 part by weight. To prepare the test solution, 1 part by weight of an active compound is mixed with the above-mentioned amount of solvent containing the above-mentioned amount of emulsifier, and the mixture is diluted with water to the desired concentration.
The leaves of sweet potato were immersed in the test solution at the appropriate concentration, and the leaves were dried in air. The leaves were then placed in a petri dish having a diameter of 9 cm, and ten third-instar larvae of tobacco cutworm were released therein. The petri dish was placed in a temperature-controlled chamber at 25° C. After 2 days and 4 days sweet potato leaves were additionally added. After 7 days, the number of dead larvae was counted to calculate the insecticidal activity. An insecticidal activity of 100% means that all larvae were killed, whereas an insecticidal activity of 0% means that no larva was killed. In the current test, the results of two petri dishes for each partition were averaged.

[2] = tested on: Two-Spotted Spider Mite (Tetranychus urticae); test: Test against two-spotted spider mite (Tetranychus urticae), spray; conditions: 100 ppm; sprayed on kidney bean; adult mites; after 7 days
Method: as §1, §2
50 to 100 adult two-spotted spider mites were inoculated onto the leaves of kidney beans at the two-true leaf stage, which plant had been cultivated in a pot having a diameter of 6 cm. After one day, test solution at the appropriate concentration was sprayed thereon in a sufficient amount using a spray gun. After the spraying, the plant pot was placed inside a greenhouse, and after 7 days, the acaricidal activity was calculated. An acaricidal activity of 100% means that all mites were killed, whereas an acaricidal activity of 0% means that no mite was killed.

[3] = tested on: Cucurbit Leaf Beetle (Aulacophora femoralis); test: Test against cucurbit leaf beetle (Aulacophora femoralis), leaf immersion; conditions: 100 ppm; cucumber leaves immersed; second-instar larvae; after 7 days
Method: as §1, §2
Cucumber leaves were immersed in the test solution at the appropriate concentration, and the leaves were dried in air. The leaves were then placed in a plastic cup containing sterilized black soil, and five second-instar larvae of cucurbit leaf beetle were released therein. The plastic cup was placed in a temperature-controlled chamber at 25° C. After 7 days, the number of dead larvae was counted, and thus the insecticidal activity was calculated. An insecticidal activity of 100% means that all beetles were killed, whereas an insecticidal activity of 0% means that no beetle was killed.

[4] = tested on: Tobacco Cutworm (Spodoptera litura) Larvae; test: Test against tobacco cutworm larvae, root systemicity; conditions: 100 ppm; broccoli seedling roots dipped 3 days; second-instar larvae; after 4 days
Method: as §1, §2
The roots of seedling of broccoli at 1.2 leaf stage were dipped into the test solution at the appropriate concentration. After 3 days, the leaves were cut and placed in a petri dish having a diameter of 9 cm. And then five second-instar larvae of tobacco cutworm were released therein. The petri dish was placed in a temperature-controlled room at 25° C. After 4 days, the number of dead larvae was counted, to calculate the insecticidal activity. An insecticidal activity of 100% means that all larvae were killed, whereas an insecticidal activity of 0% means that no larva was killed.

[5] = tested on: Musca domestica; test: Musca domestica test; conditions: 100 ppm; sponge with sugar and compound solution; adults; after 2 days
Method: Solvent: dimethyl sulfoxide
To produce a suitable preparation of active compound, 10 mg of active compound are dissolved in 0.5 ml solvent, and the concentrate is diluted with water to the desired concentration. Prior to the assay, a piece of kitchen sponge is soaked with a mixture of sugar and compound solution and placed into a container. 10 adults (Musca domestica) are placed into the container and closed with a perforated lid. After 2 days mortality in % is determined. 100% means that all the flies have been killed; 0% means that none of the flies have been killed.

| SMILES | insecticidal activity [1] [%] | acaricidal activity rate [2] [%] | insecticidal activity [3] [%] | insecticidal activity [4] [%] | mortality [5] [%] |
| --- | --- | --- | --- | --- | --- |
| O=[N+]([O-])c1cc(C2=NCC(c3cc(Cl)c(Cl)c(Cl)c3)(C(F)(F)F)C2)ccc1-n1cncn1 (stereo not drawn) [1-35] | 100 | 100 | 100 |  |  |
| CCC(=O)NCc1ccc(C2=NCC(c3cc(C(F)(F)F)cc(C(F)(F)F)c3)(C(F)(F)F)C2)cc1 (stereo not drawn) [2-647] | 100 | 100 | 100 | 100 |  |
| N#Cc1cc(C2=NCC(c3cc(Cl)c(Br)c(Cl)c3)(C(F)(F)F)C2)ccc1-n1cncn1 (stereo not drawn) [1-15] | 100 | 100 | 100 |  |  |
| CCC(=O)NC(C)c1ccc(C2=NCC(c3cc(C(F)(F)F)nc(C(F)(F)F)c3)(C(F)(F)F)C2)cc1 (stereo not drawn) [2-2872] | 100 |  |  | 100 |  |
| N#Cc1cc(C2=NCC(c3cc(Cl)nc(C(F)(F)F)c3)(C(F)(F)F)C2)ccc1-n1cncn1 (stereo not drawn) [1-492] | 100 | 100 | 100 | 100 |  |
| FC(F)(F)C1(c2cc(Cl)c(Cl)c(Cl)c2)CN=C(c2ccc(-n3cncn3)nc2)C1 (stereo not drawn) [1-110] | 100 | 100 | 100 |  |  |
| N#Cc1cc(C2=NCC(c3ccnc(C(F)(F)C(F)(F)F)c3)(C(F)(F)F)C2)ccc1-n1cncn1 (stereo not drawn) [1-156] | 100 | 100 | 100 |  |  |
| CCC(=O)NCc1ccc(C2=NCC(c3cc(C(F)(F)F)nc(C(F)(F)F)c3)(C(F)(F)F)C2)cc1Br (stereo not drawn) [2-2733, N-(4-{3-[2,6-bis(trifluoromethyl)pyridin-4-yl]-3-(trifluoromethyl)-3,4-dihydro-2H-pyrrol-5-yl}-2-bromobenzyl)propanamide] | 100 | 100 | 100 |  |  |
| O=C(CC(F)(F)F)NCc1ccc(C2=NCC(c3cc(C(F)(F)F)cc(C(F)(F)F)c3)(C(F)(F)F)C2)cc1 (stereo not drawn) [2-648] | 100 | 100 | 100 | 100 |  |
| N#Cc1cc(C2=NCC(c3ccnc(Cl)c3)(C(F)(F)F)C2)ccc1-n1cncn1 (stereo not drawn) [1-484] |  | 100 | 100 |  |  |
| FC(F)(F)C1(c2cc(Cl)c(Cl)c(Cl)c2)CN=C(c2ccc(-n3cncn3)c(Br)c2)C1 (stereo not drawn) [1-31] | 100 | 100 | 100 |  |  |
| N#Cc1cc(C2=NCC(c3cc(Cl)cc(Cl)c3Cl)(C(F)(F)F)C2)ccc1-n1cncn1 (stereo not drawn) [1-488] | 100 | 100 | 100 |  |  |
| FC(F)(F)c1cc(C2=NCC(c3cc(Cl)c(Cl)c(Cl)c3)(C(F)(F)F)C2)ccc1-n1cncn1 (stereo not drawn) [1-34] | 100 |  | 100 |  |  |
| Cc1ccc(C2(C(F)(F)F)CN=C(c3ccc(-n4cncn4)c(C#N)c3)C2)cc1[N+](=O)[O-] (stereo not drawn) [1-174] |  | 100 |  |  |  |
| Cc1cc(C2=NCC(c3cc(C(F)(F)F)cc(C(F)(F)F)c3)(C(F)(F)F)C2)ccc1CN (stereo not drawn) [2-547] | 100 |  |  |  |  |
| N#Cc1cc(C2=NCC(c3cc(C(F)(F)F)cc(C(F)(F)F)c3)(C(F)(F)F)C2)cnc1-n1cncn1 (stereo not drawn) [1-494] | 100 |  | 100 |  |  |
| FC(F)(F)C1(c2cc(Cl)c(Cl)c(Cl)c2)CN=C(c2ccc(-n3cncn3)cc2)C1 (stereo not drawn) [1-27] | 100 | 100 | 100 |  |  |
| Cc1cc(C2=NCC(c3cc(Cl)c(Cl)c(Cl)c3)(C(F)(F)F)C2)ccc1CN (stereo not drawn) [2-76] | 100 |  |  |  |  |
| FC(F)(F)C1(c2cc(Cl)nc(Cl)c2)CN=C(c2cnc(-n3cncn3)c(Cl)c2)C1 (stereo not drawn) [1-490] | 100 |  | 100 |  |  |

| SMILES | insecticidal activity [1] [%] | acaricidal activity rate [2] [%] | insecticidal activity [3] [%] | insecticidal activity [4] [%] | mortality [5] [%] |
| --- | --- | --- | --- | --- | --- |
| CC(=O)NCc1ccc(C2=NCC(c3cc(Cl)c(Cl)c(Cl)c3)(C(F)(F)F)C2)cc1 (stereo not drawn) [2-168] | 100 | 100 | 100 |  |  |
| O=C(CC(F)(F)F)NCc1ccc(C2=NCC(c3cc(Cl)c(Cl)c(Cl)c3)(C(F)(F)F)C2)cc1 (stereo not drawn) [2-170] | 100 | 100 | 100 |  |  |
| Cc1cc(C2=NCC(c3cc(C(F)(F)F)cc(C(F)(F)F)c3)(C(F)(F)F)C2)ccc1CNC(=O)OC(C)(C)C (stereo not drawn) [2-548] | 100 | 100 | 100 |  |  |
| N#Cc1cc(C2=NCC(c3cc(Br)c4c(c3)OC(F)(F)O4)(C(F)(F)F)C2)ccc1-n1cncn1 (stereo not drawn) [1-496] | 100 | 100 | 100 |  |  |
| CCC(=O)NCc1ccc(C2=NCC(c3cc(Cl)nc(Cl)c3)(C(F)(F)F)C2)cc1C(F)(F)F (stereo not drawn) [2-2151] | 100 | 100 | 100 |  |  |
| Cc1cc([N+](=O)[O-])cc(C2(C(F)(F)F)CN=C(c3ccc(-n4cncn4)c(C#N)c3)C2)c1 (stereo not drawn) [1-180] |  | 100 |  |  |  |
| N#Cc1cc(C2=NCC(c3cc(OC(F)F)cc(C(F)(F)F)c3)(C(F)(F)F)C2)ccc1-n1cncn1 (stereo not drawn) [1-497] | 100 |  | 100 | 100 |  |
| N#Cc1cc(C2=NCC(c3cccc(C(F)(F)F)c3F)(C(F)(F)F)C2)ccc1-n1cncn1 (stereo not drawn) [1-19] | 100 | 100 | 100 |  | 90 |
| CCC(=O)NCc1ccc(C2=NCC(c3cc(Cl)c(Cl)c(Cl)c3)(C(F)(F)F)C2)cc1 (stereo not drawn) [2-169] | 100 | 100 | 100 |  |  |
| N#Cc1cc(C2=NCC(c3ccc(F)c(C(F)(F)F)c3)(C(F)(F)F)C2)ccc1-n1cncn1 (stereo not drawn) [1-4] | 100 | 100 | 100 | 100 |  |
| FC(F)(F)c1cc(C(F)(F)F)cc(C2(C(F)(F)F)CN=C(c3cnc(-n4cncn4)c(Cl)c3)C2)c1 (stereo not drawn) [1-491] | 100 |  | 100 |  |  |
| CC(=O)NCc1ccc(C2=NCC(c3cc(C(F)(F)F)nc(C(F)(F)F)c3)(C(F)(F)F)C2)cc1Br (stereo not drawn) [2-2732] | 100 | 100 | 100 |  |  |
| CSCC(=O)NCc1ccc(C2=NCC(c3cc(C(F)(F)F)nc(C(F)(F)F)c3)(C(F)(F)F)C2)cc1Br (stereo not drawn) [2-2737] | 100 | 100 | 100 |  |  |
| N#Cc1cc(C2=NCC(c3cc(C(F)(F)F)cc(Cl)n3)(C(F)(F)F)C2)ccc1-n1cncn1 (stereo not drawn) [1-84] | 100 | 100 | 100 | 100 |  |
| N#Cc1cc(C2=NCC(c3cncc(C(F)(F)F)c3)(C(F)(F)F)C2)ccc1-n1cncn1 (stereo not drawn) [1-481] | 100 |  | 100 |  |  |
| N#Cc1cc(C2=NCC(c3cc(Cl)cc(Cl)c3)(C(F)(F)Cl)C2)ccc1-n1cncn1 (stereo not drawn) [1-506] | 100 | 100 | 100 |  |  |
| CS(=O)(=O)CC(=O)NCc1ccc(C2=NCC(c3cc(C(F)(F)F)nc(C(F)(F)F)c3)(C(F)(F)F)C2)cc1Br (stereo not drawn) [2-2739] | 100 | 100 | 100 |  |  |
| N#Cc1cc(C2=NCC(c3cc(C(F)(F)F)ccc3F)(C(F)(F)F)C2)ccc1-n1cncn1 (stereo not drawn) [1-482] | 100 | 100 | 100 |  |  |
